Data from publication PMC8632988, “Inhibition of SYK and cSrc kinases can protect bone and cartilage in preclinical models of osteoarthritis and rheumatoid arthritis” (Scientific Reports, 2021).
Where “and” joins values, the source holds several entries; their conditions need not be identical. Equal entries are not always repeated.

Assays:
Experiment in all cases: Kinase selectivity profile assay
Type in all cases: biochemical
ACK1 = molecular target: T1, ACK1 (Homo sapiens, UniProt Q07912); settings: for remaining activity at 0.5 µM: 500 nM, relative to DMSO, read-out: Residual enzymatic activity
T1 construct: purchased Reaction Biology Corporation (assay service)
Summary of the method: (§1)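 Radiometric kinase assay run by a standard protocol. Unbound phosphate was removed by washing filters in phosphoric acid, and product radioactivity gave percent remaining kinase activity versus DMSO vehicle reactions. Run in duplicate.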

ASK1/MAP3K5 = molecular target: T2, ASK1/MAP3K5 (Homo sapiens, UniProt Q99683); settings: 500 nM; relative to DMSO; read-out: Residual enzymatic activity
T2 construct: purchased Reaction Biology Corporation
Summary of the method: as §1

CAMK2a = molecular target: T3, CAMK2a (Homo sapiens, UniProt Q9UQM7); settings: 500 nM; relative to DMSO; read-out: Residual enzymatic activity
T3 construct: purchased Reaction Biology Corporation
Summary of the method: as §1

CAMK4 = molecular target: T4, CAMK4 (Homo sapiens, UniProt Q16566); settings: 500 nM; relative to DMSO; read-out: Residual enzymatic activity
T4 construct: purchased Reaction Biology Corporation
Summary of the method: as §1

CHK2 = molecular target: T5, CHK2 (Homo sapiens, UniProt O96017); settings: 500 nM; relative to DMSO; read-out: Residual enzymatic activity
T5 construct: purchased Reaction Biology Corporation
Summary of the method: as §1

CK1a1 = molecular target: T6, CK1a1 (Homo sapiens, UniProt P48729); settings: 500 nM; relative to DMSO; read-out: Residual enzymatic activity
T6 construct: purchased Reaction Biology Corporation
Summary of the method: as §1

CSK = molecular target: T7, CSK (Homo sapiens, UniProt P41240); settings: for remaining activity at 0.5 µM: 500 nM, relative to DMSO, read-out: Residual enzymatic activity
T7 construct: purchased Reaction Biology Corporation (assay service)
Summary of the method: as §1

DDR2 = molecular target: T8, DDR2 (Homo sapiens, UniProt Q16832); settings: 500 nM; relative to DMSO; read-out: Residual enzymatic activity
T8 construct: purchased Reaction Biology Corporation
Summary of the method: as §1

ERK2/MAPK1 = molecular target: T9, ERK2/MAPK1 (Homo sapiens, UniProt P28482); settings: 500 nM; relative to DMSO; read-out: Residual enzymatic activity
T9 construct: purchased Reaction Biology Corporation
Summary of the method: as §1

FGFR3 = molecular target: T10, FGFR3 (Homo sapiens, UniProt P22607); settings: 500 nM, relative to DMSO; for remaining activity at 0.5 µM: read-out: Residual enzymatic activity
T10 construct: purchased Reaction Biology Corporation
Summary of the method: as §1

FLT3 = molecular target: T11, FLT3 (Homo sapiens, UniProt P36888); settings: for remaining activity at 0.5 µM: 500 nM, relative to DMSO, read-out: Residual enzymatic activity
T11 construct: purchased Reaction Biology Corporation (assay service)
T11 sequence (P36888 27-993): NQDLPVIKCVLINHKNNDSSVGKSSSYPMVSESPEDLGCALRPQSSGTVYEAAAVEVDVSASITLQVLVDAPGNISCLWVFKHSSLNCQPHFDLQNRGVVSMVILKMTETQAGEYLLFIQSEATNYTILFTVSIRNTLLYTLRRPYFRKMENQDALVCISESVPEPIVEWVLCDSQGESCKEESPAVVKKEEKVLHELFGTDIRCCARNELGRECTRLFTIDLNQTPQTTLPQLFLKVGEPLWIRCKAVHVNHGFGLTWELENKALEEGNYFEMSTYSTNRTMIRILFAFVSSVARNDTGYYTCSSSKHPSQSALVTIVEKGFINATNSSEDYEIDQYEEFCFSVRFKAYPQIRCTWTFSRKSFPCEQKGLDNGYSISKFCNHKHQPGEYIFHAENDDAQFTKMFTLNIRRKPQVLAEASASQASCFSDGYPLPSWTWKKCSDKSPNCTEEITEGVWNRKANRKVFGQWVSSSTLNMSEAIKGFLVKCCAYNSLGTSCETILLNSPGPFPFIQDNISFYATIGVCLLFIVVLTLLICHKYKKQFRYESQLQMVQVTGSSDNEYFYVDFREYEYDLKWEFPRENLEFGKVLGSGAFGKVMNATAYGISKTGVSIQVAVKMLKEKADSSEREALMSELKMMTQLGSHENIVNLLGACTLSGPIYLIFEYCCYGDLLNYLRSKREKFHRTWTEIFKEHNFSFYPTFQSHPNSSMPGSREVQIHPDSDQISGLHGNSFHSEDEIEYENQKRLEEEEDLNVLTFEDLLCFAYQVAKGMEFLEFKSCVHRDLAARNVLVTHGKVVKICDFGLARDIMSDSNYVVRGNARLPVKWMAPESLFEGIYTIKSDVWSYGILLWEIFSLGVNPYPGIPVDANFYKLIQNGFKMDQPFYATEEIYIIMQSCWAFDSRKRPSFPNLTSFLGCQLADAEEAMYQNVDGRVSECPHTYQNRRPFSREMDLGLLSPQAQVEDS
Summary of the method: as §1

GSK3a = molecular target: T12, GSK3a (Homo sapiens, UniProt P49840); settings: 500 nM; relative to DMSO; read-out: Residual enzymatic activity
T12 construct: purchased Reaction Biology Corporation
Summary of the method: as §1

HIPK1 = molecular target: T13, HIPK1 (Homo sapiens, UniProt Q86Z02); settings: 500 nM; relative to DMSO; read-out: Residual enzymatic activity
T13 construct: purchased Reaction Biology Corporation
Summary of the method: as §1

IRAK4 = molecular target: T14, IRAK4 (Homo sapiens, UniProt Q9NWZ3); settings: 500 nM; relative to DMSO; read-out: Residual enzymatic activity
T14 construct: purchased Reaction Biology Corporation
Summary of the method: as §1

LIMK1 = molecular target: T15, LIMK1 (Homo sapiens, UniProt P53667); settings: for remaining activity at 0.5 µM: 500 nM, relative to DMSO, read-out: Residual enzymatic activity
T15 construct: purchased Reaction Biology Corporation (assay service)
Summary of the method: as §1

MEKK1 = molecular target: T16, MEKK1 (Homo sapiens, UniProt Q13233); settings: 500 nM; relative to DMSO; read-out: Residual enzymatic activity
T16 construct: purchased Reaction Biology Corporation
Summary of the method: as §1

MYLK3 = molecular target: T17, MYLK3 (Homo sapiens, UniProt Q32MK0); settings: 500 nM; relative to DMSO; read-out: Residual enzymatic activity
T17 construct: purchased Reaction Biology Corporation
Summary of the method: as §1

NEK5 = molecular target: T18, NEK5 (Homo sapiens, UniProt Q6P3R8); settings: 500 nM; relative to DMSO; read-out: Residual enzymatic activity
T18 construct: purchased Reaction Biology Corporation
Summary of the method: as §1

PAK5 = molecular target: T19, PAK5 (Homo sapiens, UniProt Q9P286); settings: 500 nM; relative to DMSO; read-out: Residual enzymatic activity
T19 construct: purchased Reaction Biology Corporation
Summary of the method: as §1

PDGFRb = molecular target: T20, PDGFRb (Homo sapiens, UniProt P09619); settings: for remaining activity at 0.5 µM: 500 nM, relative to DMSO, read-out: Residual enzymatic activity
T20 construct: purchased Reaction Biology Corporation (Malvern, PA, USA)
Summary of the method: as §1

PIM3 = molecular target: T21, PIM3 (Homo sapiens, UniProt Q86V86); settings: 500 nM; relative to DMSO; read-out: Residual enzymatic activity
T21 construct: purchased Reaction Biology Corporation
Summary of the method: as §1

PKCiota = molecular target: T22, PKCiota (Homo sapiens, UniProt P41743); settings: 500 nM; relative to DMSO; read-out: Residual enzymatic activity
T22 construct: purchased Reaction Biology Corporation
Summary of the method: as §1

PKD2/PRKD2 = molecular target: T23, PKD2/PRKD2 (Homo sapiens, UniProt Q9BZL6); settings: 500 nM; relative to DMSO; read-out: Residual enzymatic activity
T23 construct: purchased Reaction Biology Corporation
Summary of the method: as §1

PKG1b = molecular target: T24, PKG1b (Homo sapiens, UniProt Q13976); settings: 500 nM; relative to DMSO; read-out: Residual enzymatic activity
T24 construct: purchased Reaction Biology Corporation
Summary of the method: as §1

PRKX = molecular target: T25, PRKX (Homo sapiens, UniProt P51817); settings: 500 nM; relative to DMSO; read-out: Residual enzymatic activity
T25 construct: purchased Reaction Biology Corporation
Summary of the method: as §1

RSK2 = molecular target: T26, RSK2 (Homo sapiens, UniProt P51812); settings: 500 nM; relative to DMSO; read-out: Residual enzymatic activity
T26 construct: purchased Reaction Biology Corporation
Summary of the method: as §1

p70S6K/RPS6KB1 = molecular target: T27, p70S6K/RPS6KB1 (Homo sapiens, UniProt P23443); settings: 500 nM; relative to DMSO; read-out: Residual enzymatic activity
T27 construct: purchased Reaction Biology Corporation
Summary of the method: as §1

[1] = 10-dose mode, threefold serial dilution from 10 μM

T10 sequence (P22607 23-806): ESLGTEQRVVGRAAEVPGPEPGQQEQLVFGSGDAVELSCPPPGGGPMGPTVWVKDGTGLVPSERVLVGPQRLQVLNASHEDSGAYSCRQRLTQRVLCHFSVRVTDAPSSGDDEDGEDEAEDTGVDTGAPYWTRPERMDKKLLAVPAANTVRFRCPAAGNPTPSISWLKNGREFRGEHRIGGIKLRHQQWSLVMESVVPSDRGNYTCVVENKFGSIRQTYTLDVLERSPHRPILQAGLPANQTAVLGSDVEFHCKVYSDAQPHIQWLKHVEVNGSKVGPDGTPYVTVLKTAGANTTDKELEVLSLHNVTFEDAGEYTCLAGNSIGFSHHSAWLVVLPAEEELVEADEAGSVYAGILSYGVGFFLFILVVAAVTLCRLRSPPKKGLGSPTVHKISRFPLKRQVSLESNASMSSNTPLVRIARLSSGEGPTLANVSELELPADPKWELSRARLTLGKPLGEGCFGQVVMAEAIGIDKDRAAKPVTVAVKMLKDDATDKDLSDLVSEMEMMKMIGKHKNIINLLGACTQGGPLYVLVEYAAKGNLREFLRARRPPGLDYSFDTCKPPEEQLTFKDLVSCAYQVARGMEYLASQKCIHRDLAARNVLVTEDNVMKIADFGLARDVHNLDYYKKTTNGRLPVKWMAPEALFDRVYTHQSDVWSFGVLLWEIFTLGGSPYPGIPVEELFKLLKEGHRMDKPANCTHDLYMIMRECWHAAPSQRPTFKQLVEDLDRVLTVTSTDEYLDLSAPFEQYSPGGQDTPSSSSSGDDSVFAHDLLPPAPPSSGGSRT
T15 sequence (P53667 whole entry): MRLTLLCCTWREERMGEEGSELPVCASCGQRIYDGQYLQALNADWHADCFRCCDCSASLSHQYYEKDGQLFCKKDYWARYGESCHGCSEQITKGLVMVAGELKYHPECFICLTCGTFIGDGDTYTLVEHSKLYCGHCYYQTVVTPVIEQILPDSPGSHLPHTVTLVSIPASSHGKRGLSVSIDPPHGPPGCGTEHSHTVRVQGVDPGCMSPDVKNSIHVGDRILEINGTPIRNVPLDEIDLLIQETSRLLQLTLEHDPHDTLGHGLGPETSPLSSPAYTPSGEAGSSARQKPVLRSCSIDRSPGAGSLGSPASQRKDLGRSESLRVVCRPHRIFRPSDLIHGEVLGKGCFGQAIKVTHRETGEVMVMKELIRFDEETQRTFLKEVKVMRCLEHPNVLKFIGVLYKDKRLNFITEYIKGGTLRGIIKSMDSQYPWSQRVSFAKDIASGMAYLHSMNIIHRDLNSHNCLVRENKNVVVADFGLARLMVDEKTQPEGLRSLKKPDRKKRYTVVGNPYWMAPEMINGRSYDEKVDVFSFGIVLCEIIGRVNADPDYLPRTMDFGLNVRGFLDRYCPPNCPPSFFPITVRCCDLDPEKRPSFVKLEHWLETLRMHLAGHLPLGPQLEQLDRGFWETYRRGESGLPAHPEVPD
T20 sequence (P09619 33-1106): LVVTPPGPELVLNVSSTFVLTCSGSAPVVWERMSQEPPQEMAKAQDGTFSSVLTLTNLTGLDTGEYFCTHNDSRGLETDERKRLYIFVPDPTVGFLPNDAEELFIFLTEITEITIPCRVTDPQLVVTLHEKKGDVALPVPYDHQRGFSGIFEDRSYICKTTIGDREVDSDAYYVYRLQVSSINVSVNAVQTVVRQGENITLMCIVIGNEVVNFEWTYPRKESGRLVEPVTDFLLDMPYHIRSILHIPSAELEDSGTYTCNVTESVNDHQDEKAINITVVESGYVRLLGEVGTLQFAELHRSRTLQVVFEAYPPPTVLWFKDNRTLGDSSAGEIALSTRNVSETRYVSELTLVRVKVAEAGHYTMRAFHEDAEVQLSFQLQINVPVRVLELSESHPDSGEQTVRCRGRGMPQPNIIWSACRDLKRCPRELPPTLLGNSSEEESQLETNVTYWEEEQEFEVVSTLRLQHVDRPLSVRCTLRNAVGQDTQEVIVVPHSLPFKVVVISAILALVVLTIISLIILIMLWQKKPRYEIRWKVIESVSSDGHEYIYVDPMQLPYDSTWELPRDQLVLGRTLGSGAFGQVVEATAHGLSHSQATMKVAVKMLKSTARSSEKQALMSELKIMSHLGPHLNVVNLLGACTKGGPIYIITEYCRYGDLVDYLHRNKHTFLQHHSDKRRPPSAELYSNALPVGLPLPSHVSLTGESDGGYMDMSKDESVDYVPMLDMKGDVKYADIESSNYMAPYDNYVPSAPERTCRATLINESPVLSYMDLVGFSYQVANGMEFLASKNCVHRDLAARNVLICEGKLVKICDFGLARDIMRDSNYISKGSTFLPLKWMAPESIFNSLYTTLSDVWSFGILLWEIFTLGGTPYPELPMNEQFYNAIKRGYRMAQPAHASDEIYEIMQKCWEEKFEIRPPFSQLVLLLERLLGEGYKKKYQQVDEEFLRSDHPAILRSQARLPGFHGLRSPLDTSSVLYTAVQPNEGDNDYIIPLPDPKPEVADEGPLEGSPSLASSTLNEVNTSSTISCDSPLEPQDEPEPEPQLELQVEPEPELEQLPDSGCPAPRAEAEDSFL
T1 sequence (Q07912 whole entry): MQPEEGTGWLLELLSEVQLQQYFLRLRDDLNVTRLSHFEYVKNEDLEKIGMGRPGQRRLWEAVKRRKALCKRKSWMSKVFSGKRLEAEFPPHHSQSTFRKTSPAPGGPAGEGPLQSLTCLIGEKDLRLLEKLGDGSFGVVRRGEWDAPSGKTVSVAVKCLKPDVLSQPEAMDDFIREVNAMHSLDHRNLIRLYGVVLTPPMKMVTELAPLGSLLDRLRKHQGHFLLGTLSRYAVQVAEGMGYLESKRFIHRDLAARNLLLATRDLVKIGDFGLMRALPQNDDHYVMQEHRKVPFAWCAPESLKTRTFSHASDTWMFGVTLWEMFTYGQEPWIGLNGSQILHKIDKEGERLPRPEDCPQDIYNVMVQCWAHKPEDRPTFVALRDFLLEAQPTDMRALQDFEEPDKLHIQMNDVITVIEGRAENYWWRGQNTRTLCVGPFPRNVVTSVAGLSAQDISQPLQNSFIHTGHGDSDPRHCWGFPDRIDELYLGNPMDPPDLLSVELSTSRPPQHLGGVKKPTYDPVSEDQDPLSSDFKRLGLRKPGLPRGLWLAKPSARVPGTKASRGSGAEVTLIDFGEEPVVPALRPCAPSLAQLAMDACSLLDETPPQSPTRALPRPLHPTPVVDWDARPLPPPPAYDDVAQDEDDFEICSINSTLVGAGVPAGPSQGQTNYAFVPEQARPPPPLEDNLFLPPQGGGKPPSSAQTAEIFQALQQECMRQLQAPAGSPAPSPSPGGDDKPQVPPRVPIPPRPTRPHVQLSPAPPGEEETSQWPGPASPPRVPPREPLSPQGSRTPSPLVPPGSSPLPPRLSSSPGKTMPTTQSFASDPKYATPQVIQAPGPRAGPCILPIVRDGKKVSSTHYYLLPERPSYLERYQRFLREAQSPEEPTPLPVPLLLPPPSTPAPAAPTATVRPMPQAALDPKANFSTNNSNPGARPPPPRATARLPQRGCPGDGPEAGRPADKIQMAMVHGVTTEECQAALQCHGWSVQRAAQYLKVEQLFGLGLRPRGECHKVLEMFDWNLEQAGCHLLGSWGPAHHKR
T7 sequence (P41240 whole entry): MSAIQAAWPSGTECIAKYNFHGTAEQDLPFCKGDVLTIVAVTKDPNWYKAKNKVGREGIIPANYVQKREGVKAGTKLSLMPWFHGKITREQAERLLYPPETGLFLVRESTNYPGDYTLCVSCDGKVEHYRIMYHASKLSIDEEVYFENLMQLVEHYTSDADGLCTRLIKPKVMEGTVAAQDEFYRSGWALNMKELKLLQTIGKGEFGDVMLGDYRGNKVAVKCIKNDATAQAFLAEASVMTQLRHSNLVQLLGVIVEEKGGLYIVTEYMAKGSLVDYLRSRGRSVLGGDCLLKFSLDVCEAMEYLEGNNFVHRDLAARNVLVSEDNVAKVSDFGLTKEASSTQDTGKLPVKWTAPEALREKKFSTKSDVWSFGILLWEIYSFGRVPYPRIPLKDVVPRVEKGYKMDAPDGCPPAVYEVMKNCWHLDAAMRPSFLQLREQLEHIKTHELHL
T24 sequence (Q13976 1-686 isoform Q13976-2): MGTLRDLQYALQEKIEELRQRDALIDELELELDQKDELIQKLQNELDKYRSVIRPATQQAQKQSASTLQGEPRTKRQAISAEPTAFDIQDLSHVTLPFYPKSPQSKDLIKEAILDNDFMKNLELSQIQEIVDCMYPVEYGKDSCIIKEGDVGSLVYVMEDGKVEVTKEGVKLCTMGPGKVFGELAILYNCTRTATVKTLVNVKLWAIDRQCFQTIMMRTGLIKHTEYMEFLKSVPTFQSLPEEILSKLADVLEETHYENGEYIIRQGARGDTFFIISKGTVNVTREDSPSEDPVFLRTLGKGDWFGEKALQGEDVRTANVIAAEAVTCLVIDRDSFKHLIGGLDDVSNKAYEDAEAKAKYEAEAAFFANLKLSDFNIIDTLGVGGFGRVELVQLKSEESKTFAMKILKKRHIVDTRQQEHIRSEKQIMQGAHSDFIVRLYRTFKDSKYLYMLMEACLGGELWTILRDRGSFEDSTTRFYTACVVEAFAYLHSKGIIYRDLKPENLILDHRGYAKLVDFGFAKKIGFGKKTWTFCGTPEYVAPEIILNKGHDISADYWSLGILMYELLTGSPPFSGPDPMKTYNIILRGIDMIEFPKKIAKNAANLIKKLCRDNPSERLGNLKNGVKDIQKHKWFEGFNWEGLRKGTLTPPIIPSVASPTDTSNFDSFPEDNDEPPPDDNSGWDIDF
T6 sequence (P48729 whole entry): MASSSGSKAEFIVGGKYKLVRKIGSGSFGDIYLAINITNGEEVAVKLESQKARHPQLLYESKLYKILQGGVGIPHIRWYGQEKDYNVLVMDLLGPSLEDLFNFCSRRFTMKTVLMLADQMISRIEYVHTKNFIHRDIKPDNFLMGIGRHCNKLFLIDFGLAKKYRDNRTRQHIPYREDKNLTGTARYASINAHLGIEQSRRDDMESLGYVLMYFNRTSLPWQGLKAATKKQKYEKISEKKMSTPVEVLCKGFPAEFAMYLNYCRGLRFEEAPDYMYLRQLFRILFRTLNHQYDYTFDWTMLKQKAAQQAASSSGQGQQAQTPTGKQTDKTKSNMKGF

| SMILES | remaining activity at 0.5 µM (ACK1) [%] | remaining activity at 0.5 µM (ASK1/MAP3K5) [%] | remaining activity at 0.5 µM (CAMK2a) [%] | remaining activity at 0.5 µM (CAMK4) [%] | remaining activity at 0.5 µM (CHK2) [%] | remaining activity at 0.5 µM (CK1a1) [%] | remaining activity at 0.5 µM (CSK) [%] | remaining activity at 0.5 µM (DDR2) [%] | remaining activity at 0.5 µM (ERK2/MAPK1) [%] | remaining activity at 0.5 µM (FGFR3) [%] | remaining activity at 0.5 µM (FLT3) [%] | remaining activity at 0.5 µM (GSK3a) [%] | remaining activity at 0.5 µM (HIPK1) [%] | remaining activity at 0.5 µM (IRAK4) [%] | remaining activity at 0.5 µM (LIMK1) [%] | remaining activity at 0.5 µM (MEKK1) [%] | remaining activity at 0.5 µM (MYLK3) [%] | remaining activity at 0.5 µM (NEK5) [%] | remaining activity at 0.5 µM (PAK5) [%] | remaining activity at 0.5 µM (PDGFRb) [%] | further results |
| --- | --- | --- | --- | --- | --- | --- | --- | --- | --- | --- | --- | --- | --- | --- | --- | --- | --- | --- | --- | --- | --- |
| COc1cc(Nc2ncnc(Nc3cc4c(cn3)NC(=O)C(C)(C)O4)n2)cc(OC)c1OC [MT-SYK-03] | 5.4 | 102 | 94.1 | 111 | 95 | 101 | 34.8 | 69 | 90.6 | > 54 | 5.7 | 74.2 | 97.4 | 103 | 11.4 | 105 | 95.9 | 63.6 | 98.5 | 24.5 | IC50 (ACK1; [1]): 86 nM and 85.7 nM; IC50 (CSK; [1]): 238 nM; Residual enzymatic activity (FGFR3): 57.2%; IC50 (FLT3; [1]): 23 nM; IC50 (LIMK1; [1]): 45 nM and 44.6 nM; IC50 (PDGFRb; [1]): 4.5 nM; remaining activity at 0.5 µM (PIM3): 98.8%; remaining activity at 0.5 µM (PKCiota): 102%; remaining activity at 0.5 µM (PKD2/PRKD2): 102%; remaining activity at 0.5 µM (PKG1b): 93.9%; remaining activity at 0.5 µM (PRKX): 115%; remaining activity at 0.5 µM (RSK2): 104%; remaining activity at 0.5 µM (p70S6K/RPS6KB1): 98.3% |
| COc1cc(Nc2ncc(F)c(Nc3ccc4c(n3)NC(=O)C(C)(C)O4)n2)cc(OC)c1OC [R406, reference compound] | 0.6 | 97.1 | 94.4 | 120 | 50.7 | 95.5 | 20.6 | 31.5 | 88 | 17.4 | 6.2 | 27.5 | 90.8 | 41.9 | 7.2 | 100 | 96.4 | 27.1 | 49 | 6.1 | remaining activity at 0.5 µM (PIM3): 82.8%; remaining activity at 0.5 µM (PKCiota): 103%; remaining activity at 0.5 µM (PKD2/PRKD2): 75.2%; remaining activity at 0.5 µM (PKG1b): 98.6%; remaining activity at 0.5 µM (PRKX): 104%; remaining activity at 0.5 µM (RSK2): 56.9%; remaining activity at 0.5 µM (p70S6K/RPS6KB1): 49.1% |
